Columns and labels:
barnyardgrass [1] = assay: Test B pre-/postemergence herbicide test; type: in vivo, Echinochloa crus-galli
Summary of the method: (§1)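 Response was scored visually 13 to 15 days after treatment against untreated greenhouse controls, 0 meaning no effect and 100 complete control. Formulations (solvent mixture plus surfactant) went onto soil after planting, onto foliage of 1- to 4-leaf plants, and onto 2-leaf plants in a flooded paddy set including rice and barnyardgrass.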

Surinam grass = assay: Test B pre-/postemergence herbicide test; type: in vivo, Urochloa decumbens; settings: for Surinam Grass plant response rating: postemergence, visual rating
Summary of the method: (§2)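 Formulation: non-phytotoxic solvent mix with surfactant. Timing: preemergence on seed and postemergence on 2–18 cm plants, applied concurrently. Readout after 13–15 d greenhouse: visual 0–100 control rating against controls.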

cocklebur = assay: Test B pre-/postemergence herbicide test; type: in vivo, Xanthium strumarium
Summary of the method: as §1

corn = assay: Test B pre-/postemergence herbicide test; type: in vivo, Zea mays
Summary of the method: as §2

large crabgrass = assay: Test B pre-/postemergence herbicide test; type: in vivo, Digitaria sanguinalis
Summary of the method: as §2

giant foxtail = assay: Test B pre-/postemergence herbicide test; type: in vivo, Setaria faberi
Summary of the method: as §2

morningglory = assay: Test B pre-/postemergence herbicide test; type: in vivo, Ipomoea coccinea; settings: for Morningglory plant response rating: postemergence, visual rating
Summary of the method: as §1

pigweed = assay: Test B pre-/postemergence herbicide test; type: in vivo, Amaranthus retroflexus; settings: for Pigweed plant response rating: postemergence, visual rating
Summary of the method: as §2

velvetleaf = assay: Test B pre-/postemergence herbicide test; type: in vivo, Abutilon theophrasti; settings: for Velvetleaf plant response rating: postemergence, visual rating
Summary of the method: as §2

blackgrass = assay: Test B postemergence herbicide test; type: in vivo, Alopecurus myosuroides; settings: scale 0 (no effect) to 100 (complete control); for Plant response rating, Blackgrass: Postemergence, 500 g ai/ha, visual rating after 13 to 15 days; for Blackgrass plant response rating: postemergence, 125 g ai/ha, visual rating
Summary of the method: (§3)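 Visual control ratings, 0–100 versus untreated controls, taken after 13 to 15 days in the greenhouse. Blackgrass received a postemergence spray at the 1- to 4-leaf stage (2–18 cm); ducksalad, umbrella sedge and barnyardgrass were flooded-paddy treated at 2 leaves.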

wheat = assay: Test B postemergence herbicide test; type: in vivo, Triticum aestivum; set-up: key to Wheat plant response rating: 0 = no effect, 100 = complete control; settings: scale 0 (no effect) to 100 (complete control); for Plant response rating, Wheat: Postemergence, 500 g ai/ha, visual rating after 13 to 15 days; for Wheat plant response rating: postemergence, 125 g ai/ha, visual rating
Summary of the method: (§4)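 Treated at 2-leaf (paddy) or 1–4-leaf, 2–18 cm (postemergence); greenhouse 13–15 d; visual score vs control, 0 none to 100 complete control; dash = not tested.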

wild oat = assay: Test B postemergence herbicide test; type: in vivo, Avena fatua; settings: scale 0 (no effect) to 100 (complete control); for Plant response rating, Oat, Wild: Postemergence, 500 g ai/ha, visual rating after 13 to 15 days; for Oat, Wild plant response rating: postemergence, 125 g ai/ha, visual rating
Summary of the method: as §4

rice = assay: Test B flooded paddy test; type: in vivo, Oryza sativa; settings: 1000 g ai/ha, visual rating, scale 0 to 100 (0 no effect, 100 complete control), 13 to 15 days
Summary of the method: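 Scale 0–100: zero equals no visible effect, 100 complete control, judged by eye relative to controls. Timing: 13 to 15 days in greenhouse post-treatment. Growth stage at spraying: two leaves (paddy) or one to four leaves, 2–18 cm (postemergence).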

[2] = test system: small flower umbrella sedge; assay: Test B flooded paddy test; type: in vivo, Cyperus difformis; settings: 1000 g ai/ha, visual rating, scale 0 to 100 (0 no effect, 100 complete control), 13 to 15 days
Summary of the method: as §3

ducksalad = assay: Test B flooded paddy test; type: in vivo, Heteranthera limosa; settings: 1000 g ai/ha, visual rating, scale 0 to 100 (0 no effect, 100 complete control), 13 to 15 days
Summary of the method: as §3

barnyardgrass [3] = assay: Test B flooded paddy test; type: in vivo, Echinochloa crus-galli; settings: 1000 g ai/ha, visual rating, scale 0 to 100 (0 no effect, 100 complete control), 13 to 15 days
Summary of the method: as §3

[4] = Postemergence, 500 g ai/ha, visual rating after 13 to 15 days, scale 0 (no effect) to 100 (complete control)
[5] = Preemergence, 500 g ai/ha, scale 0 to 100
[6] = postemergence, 125 g ai/ha, visual rating, scale 0 (no effect) to 100 (complete control)
[7] = preemergence, 125 g ai/ha, 0 to 100 scale, 0 is no effect, 100 is complete control
[8] = 125 g ai/ha, scale 0 (no effect) to 100 (complete control)
[9] = 500 g ai/ha, visual rating 0-100, 0 no effect, 100 complete control, preemergence

CCCCOC(=O)c1cccc(NC(=O)c2cc(C(C)(C)C)nn2CC)c1 [Compound 86]
50: Barnyardgrass plant response rating (barnyardgrass [1]; [6]) | Rice plant response rating (rice)
30: Plant response rating, Corn (corn; [4]) | Wheat plant response rating (wheat) | Oat, Wild plant response rating (wild oat) | Barnyardgrass plant response rating (barnyardgrass [3])
90: Plant response rating, Crabgrass, Large (large crabgrass; [4])
70: Surinam Grass plant response rating (Surinam grass; [8]) | Plant response rating, Velvetleaf (velvetleaf; [4]) | Sedge, Umbrella plant response rating [2]
0: Barnyardgrass plant response rating (barnyardgrass [1]; [5]) | Plant response rating, Barnyardgrass (barnyardgrass [1]; [7]) | Plant response rating, Surinam Grass (Surinam grass; [7]) | Cocklebur plant response rating (cocklebur; [5]) | Plant response rating, Cocklebur (cocklebur; [7]) | Corn plant response rating (corn; [5]) | Plant response rating, Corn (corn; [7]) | Crabgrass, Large plant response rating (large crabgrass; [5]) | Plant response rating, Crabgrass, Large (large crabgrass; [7]) | Foxtail, Giant plant response rating (giant foxtail; [5]) | Plant response rating, Foxtail, Giant (giant foxtail; [7]) | Plant response rating, Morningglory (morningglory; [7]) | Plant response rating, Pigweed (pigweed; [7]) | Plant response rating, Velvetleaf (velvetleaf; [7])
40: Foxtail, Giant plant response rating (giant foxtail; [6]) | Plant response rating, Wheat (wheat)
20: Cocklebur plant response rating (cocklebur; [6]) | Corn plant response rating (corn; [6]) | Plant response rating, Blackgrass (blackgrass) | Ducksalad plant response rating (ducksalad)
60: Crabgrass, Large plant response rating (large crabgrass; [6]) | Plant response rating, Foxtail, Giant (giant foxtail; [4]) | Morningglory plant response rating (morningglory; [8]) | Velvetleaf plant response rating (velvetleaf; [8]) | Plant response rating, Oat, Wild (wild oat)
10: Blackgrass plant response rating (blackgrass)
100: Plant response rating, Surinam Grass (Surinam grass; [4]) | Plant response rating, Cocklebur (cocklebur; [4]) | Plant response rating, Morningglory (morningglory; [4]) | Plant response rating, Pigweed (pigweed; [4]) | Pigweed plant response rating (pigweed; [8])
80: Plant response rating, Barnyardgrass (barnyardgrass [1]; [4])

CCOC(=O)c1cccc(NC(=O)c2cc(C(C)(C)C)nn2CC)c1C [Compound 88]
70: Plant response rating, Barnyardgrass (barnyardgrass [1]; [7]) | Plant response rating, Corn (corn; [4]) | Plant response rating, Foxtail, Giant (giant foxtail; [7]) | Plant response rating, Velvetleaf (velvetleaf; [4]) | Barnyardgrass plant response rating (barnyardgrass [3])
30: Barnyardgrass plant response rating (barnyardgrass [1]; [6]) | Crabgrass, Large plant response rating (large crabgrass; [6]) | Foxtail, Giant plant response rating (giant foxtail; [6]) | Velvetleaf plant response rating (velvetleaf; [8])
90: Barnyardgrass plant response rating (barnyardgrass [1]; [5]) | Plant response rating, Crabgrass, Large (large crabgrass; [7]) | Foxtail, Giant plant response rating (giant foxtail; [5])
100: Crabgrass, Large plant response rating (large crabgrass; [5]) | Plant response rating, Pigweed (pigweed; [7])
80: Sedge, Umbrella plant response rating [2] | Ducksalad plant response rating (ducksalad)
0: Plant response rating, Surinam Grass (Surinam grass; [4]) | Surinam Grass plant response rating (Surinam grass; [8]) | Cocklebur plant response rating (cocklebur; [5]) | Plant response rating, Cocklebur (cocklebur; [7]) | Plant response rating, Corn (corn; [7]) | Plant response rating, Morningglory (morningglory; [4]) | Morningglory plant response rating (morningglory; [8]) | Plant response rating, Morningglory (morningglory; [7]) | Plant response rating, Blackgrass (blackgrass) | Blackgrass plant response rating (blackgrass) | Plant response rating, Wheat (wheat) | Wheat plant response rating (wheat) | Plant response rating, Oat, Wild (wild oat) | Oat, Wild plant response rating (wild oat)
10: Cocklebur plant response rating (cocklebur; [6]) | Corn plant response rating (corn; [6])
50: Plant response rating, Cocklebur (cocklebur; [4]) | Pigweed plant response rating (pigweed; [8])
40: Plant response rating, Foxtail, Giant (giant foxtail; [4]) | Plant response rating, Velvetleaf (velvetleaf; [7]) | Rice plant response rating (rice)
60: Plant response rating, Barnyardgrass (barnyardgrass [1]; [4]) | Corn plant response rating (corn; [5]) | Plant response rating, Crabgrass, Large (large crabgrass; [4]) | Plant response rating, Pigweed (pigweed; [4])
20: Plant response rating, Surinam Grass (Surinam grass; [7])

CCOC(=O)c1cc(NC(=O)c2cc(C(C)(C)C)nn2CC)ccc1OC [Compound 96]
60: Plant response rating, Foxtail, Giant (giant foxtail; [7])
100: Plant response rating, Cocklebur (cocklebur; [4]) | Plant response rating, Crabgrass, Large (large crabgrass; [9]) | Plant response rating, Pigweed (pigweed; [9]) | Plant response rating, Pigweed (pigweed; [4]) | Plant response rating, Pigweed (pigweed; [7])
80: Plant response rating, Surinam Grass (Surinam grass; [9]) | Plant response rating, Velvetleaf (velvetleaf; [4]) | Barnyardgrass plant response rating (barnyardgrass [3])
50: Plant response rating, Barnyardgrass (barnyardgrass [1]; [4]) | Plant response rating, Crabgrass, Large (large crabgrass; [4]) | Plant response rating, Foxtail, Giant (giant foxtail; [4]) | Plant response rating, Velvetleaf (velvetleaf; [7])
30: Plant response rating, Surinam Grass (Surinam grass; [4]) | Foxtail, Giant plant response rating (giant foxtail; [6])
10: Corn plant response rating (corn; [6]) | Plant response rating, Morningglory (morningglory; [9]) | Wheat plant response rating (wheat)
90: Plant response rating, Barnyardgrass (barnyardgrass [1]; [9]) | Cocklebur plant response rating (cocklebur; [6]) | Plant response rating, Foxtail, Giant (giant foxtail; [9]) | Plant response rating, Velvetleaf (velvetleaf; [9]) | Sedge, Umbrella plant response rating [2] | Ducksalad plant response rating (ducksalad)
20: Surinam Grass plant response rating (Surinam grass; [8]) | Plant response rating, Surinam Grass (Surinam grass; [7]) | Plant response rating, Corn (corn; [4]) | Plant response rating, Crabgrass, Large (large crabgrass; [7]) | Plant response rating, Blackgrass (blackgrass) | Plant response rating, Wheat (wheat) | Plant response rating, Oat, Wild (wild oat) | Oat, Wild plant response rating (wild oat)
70: Plant response rating, Barnyardgrass (barnyardgrass [1]; [7]) | Plant response rating, Corn (corn; [9]) | Pigweed plant response rating (pigweed; [8]) | Velvetleaf plant response rating (velvetleaf; [8]) | Rice plant response rating (rice)
40: Plant response rating, Corn (corn; [7]) | Crabgrass, Large plant response rating (large crabgrass; [6])
0: Barnyardgrass plant response rating (barnyardgrass [1]; [6]) | Plant response rating, Cocklebur (cocklebur; [9]) | Plant response rating, Cocklebur (cocklebur; [7]) | Plant response rating, Morningglory (morningglory; [4]) | Morningglory plant response rating (morningglory; [8]) | Plant response rating, Morningglory (morningglory; [7]) | Blackgrass plant response rating (blackgrass)

— patent US20060069132A1, “Azolecarboxamide herbicides” (priority 2004, published 2006)
